Experimental findings from ChEMBL document CHEMBL5715954, “Silencing c-Myc translation as a therapeutic strategy through targeting PI3Kδ and CK1ε in hematological malignancies” (Blood, 2017) are described below.

Common to all, as to parameters: scale not given: the % may be the effect or the level left
Assay [1] concerns the target T1, Tyrosine-protein kinase Tec (Homo sapiens) (UniProt P42680).
T1 sequence (whole entry): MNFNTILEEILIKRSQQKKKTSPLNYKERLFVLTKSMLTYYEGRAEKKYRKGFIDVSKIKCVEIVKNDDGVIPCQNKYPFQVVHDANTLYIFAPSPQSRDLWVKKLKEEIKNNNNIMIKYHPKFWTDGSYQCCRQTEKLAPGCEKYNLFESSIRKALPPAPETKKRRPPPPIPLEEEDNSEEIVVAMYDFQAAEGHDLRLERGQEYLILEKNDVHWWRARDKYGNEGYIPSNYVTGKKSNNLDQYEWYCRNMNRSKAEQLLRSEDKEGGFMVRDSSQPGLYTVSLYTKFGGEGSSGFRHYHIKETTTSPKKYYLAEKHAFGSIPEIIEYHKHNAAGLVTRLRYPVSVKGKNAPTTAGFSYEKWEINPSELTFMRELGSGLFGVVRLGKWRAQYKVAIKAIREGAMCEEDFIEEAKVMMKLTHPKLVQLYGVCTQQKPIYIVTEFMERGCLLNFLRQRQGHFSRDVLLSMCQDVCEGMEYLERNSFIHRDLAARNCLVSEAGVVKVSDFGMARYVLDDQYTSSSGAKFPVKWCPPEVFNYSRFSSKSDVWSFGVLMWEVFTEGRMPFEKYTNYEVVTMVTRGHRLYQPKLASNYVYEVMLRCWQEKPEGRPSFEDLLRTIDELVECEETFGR
Briefly: Inhibition of human TEC assessed as enzyme activity at 1 uM using poly[Glu:Tyr] (4:1) as substrate preincubated for 20 mins followed by [gamma-33P]-ATP addition and measured after 120 mins by radiometric Hot-SpotSM Kinase assay relative to control.

The target of assay [2] is T2, Dual specificity mitogen-activated protein kinase kinase 4 (Homo sapiens) (UniProt P45985).
T2 sequence (whole entry): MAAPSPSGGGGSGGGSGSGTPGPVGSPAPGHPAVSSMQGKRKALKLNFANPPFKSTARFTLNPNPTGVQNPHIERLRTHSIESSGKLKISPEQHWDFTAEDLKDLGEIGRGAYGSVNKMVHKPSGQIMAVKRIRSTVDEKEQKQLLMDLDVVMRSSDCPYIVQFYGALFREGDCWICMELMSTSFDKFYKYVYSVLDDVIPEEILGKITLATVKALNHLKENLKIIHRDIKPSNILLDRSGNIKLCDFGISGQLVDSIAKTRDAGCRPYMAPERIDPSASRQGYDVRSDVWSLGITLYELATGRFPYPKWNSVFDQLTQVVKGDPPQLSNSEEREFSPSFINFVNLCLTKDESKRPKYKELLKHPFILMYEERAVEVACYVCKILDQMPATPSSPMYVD
Briefly: Inhibition of human MKK4 assessed as enzyme activity at 1 uM using JNK1 (K55M) as substrate preincubated for 20 mins followed by [gamma-33P]-ATP addition and measured after 120 mins by radiometric Hot-SpotSM Kinase assay relative to control.

Assay [3] has as its target T3, Serine/threonine-protein kinase D3 (Homo sapiens) (UniProt O94806).
T3 sequence (whole entry): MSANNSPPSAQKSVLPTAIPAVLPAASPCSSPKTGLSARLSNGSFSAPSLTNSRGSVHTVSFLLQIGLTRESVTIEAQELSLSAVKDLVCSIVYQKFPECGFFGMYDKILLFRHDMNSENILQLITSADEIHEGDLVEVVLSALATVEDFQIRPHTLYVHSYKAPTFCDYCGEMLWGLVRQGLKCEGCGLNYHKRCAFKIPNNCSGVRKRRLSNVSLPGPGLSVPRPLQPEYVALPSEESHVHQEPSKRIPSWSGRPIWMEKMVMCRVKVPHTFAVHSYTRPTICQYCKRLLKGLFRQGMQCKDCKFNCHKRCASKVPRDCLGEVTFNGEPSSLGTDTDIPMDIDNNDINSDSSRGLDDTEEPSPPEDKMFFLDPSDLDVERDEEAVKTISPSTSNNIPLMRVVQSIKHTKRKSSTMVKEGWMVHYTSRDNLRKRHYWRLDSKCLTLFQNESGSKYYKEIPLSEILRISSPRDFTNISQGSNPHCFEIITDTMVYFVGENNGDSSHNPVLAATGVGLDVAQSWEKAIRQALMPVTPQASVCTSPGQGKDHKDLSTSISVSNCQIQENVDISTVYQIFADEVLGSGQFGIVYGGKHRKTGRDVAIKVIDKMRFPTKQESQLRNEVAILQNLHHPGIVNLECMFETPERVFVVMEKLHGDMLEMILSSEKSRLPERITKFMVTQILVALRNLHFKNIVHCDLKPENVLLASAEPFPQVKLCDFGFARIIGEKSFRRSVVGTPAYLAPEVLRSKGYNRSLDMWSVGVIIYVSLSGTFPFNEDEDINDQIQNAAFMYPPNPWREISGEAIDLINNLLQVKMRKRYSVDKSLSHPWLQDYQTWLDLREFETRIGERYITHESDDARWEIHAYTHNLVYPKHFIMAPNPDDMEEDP
Briefly: Inhibition of human PKCnu assessed as enzyme activity at 1 uM using KKLNRTLSVA as substrate preincubated for 20 mins followed by [gamma-33P]-ATP addition and measured after 120 mins by radiometric Hot-SpotSM Kinase assay relative to control.

The target of assay [4] is Tyrosine-protein kinase HCK (Homo sapiens) (UniProt P08631). Briefly: Inhibition of human HCK assessed as enzyme activity at 1 uM using KVEKIGEGTYGVVYK as substrate preincubated for 20 mins followed by [gamma-33P]-ATP addition and measured after 120 mins by radiometric Hot-SpotSM Kinase assay relative to control.
Sequence of Tyrosine-protein kinase HCK (Homo sapiens) (P08631 2-526 limits assumed): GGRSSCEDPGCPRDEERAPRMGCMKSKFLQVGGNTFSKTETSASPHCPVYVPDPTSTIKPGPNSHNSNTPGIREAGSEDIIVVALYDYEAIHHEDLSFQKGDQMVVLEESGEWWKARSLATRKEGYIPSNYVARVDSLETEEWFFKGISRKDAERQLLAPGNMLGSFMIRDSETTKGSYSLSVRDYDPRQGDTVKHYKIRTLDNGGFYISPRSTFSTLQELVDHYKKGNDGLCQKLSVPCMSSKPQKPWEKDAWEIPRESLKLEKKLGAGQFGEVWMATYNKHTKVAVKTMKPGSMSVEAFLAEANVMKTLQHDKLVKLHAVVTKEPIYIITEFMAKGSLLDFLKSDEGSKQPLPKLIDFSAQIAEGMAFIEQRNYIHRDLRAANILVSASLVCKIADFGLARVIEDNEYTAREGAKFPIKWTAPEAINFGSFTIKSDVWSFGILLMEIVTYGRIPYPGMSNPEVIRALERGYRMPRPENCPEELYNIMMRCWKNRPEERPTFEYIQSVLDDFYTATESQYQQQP
Assay [5] addresses T4, Mitogen-activated protein kinase kinase kinase 3 (Homo sapiens) (UniProt Q99759).
T4 sequence (whole entry): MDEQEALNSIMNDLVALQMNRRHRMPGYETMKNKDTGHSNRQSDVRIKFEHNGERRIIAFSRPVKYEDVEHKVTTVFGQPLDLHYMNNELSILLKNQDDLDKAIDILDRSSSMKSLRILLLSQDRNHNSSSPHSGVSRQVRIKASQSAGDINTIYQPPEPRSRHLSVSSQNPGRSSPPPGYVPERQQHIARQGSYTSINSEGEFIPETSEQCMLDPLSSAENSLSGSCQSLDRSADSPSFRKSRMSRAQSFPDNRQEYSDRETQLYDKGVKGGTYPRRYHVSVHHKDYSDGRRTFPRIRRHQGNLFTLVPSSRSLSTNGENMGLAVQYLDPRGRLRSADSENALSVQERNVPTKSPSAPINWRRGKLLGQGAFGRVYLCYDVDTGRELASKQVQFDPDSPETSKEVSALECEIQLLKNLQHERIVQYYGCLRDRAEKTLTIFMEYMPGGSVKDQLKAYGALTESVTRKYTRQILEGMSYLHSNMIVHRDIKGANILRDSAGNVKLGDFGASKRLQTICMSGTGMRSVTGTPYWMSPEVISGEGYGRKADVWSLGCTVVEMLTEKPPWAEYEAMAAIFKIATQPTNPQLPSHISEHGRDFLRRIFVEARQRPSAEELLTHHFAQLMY
Briefly: Inhibition of human MEKK3 assessed as enzyme activity at 1 uM using myelin basic protein as substrate preincubated for 20 mins followed by [gamma-33P]-ATP addition and measured after 120 mins by radiometric Hot-SpotSM Kinase assay relative to control.

The structures appear in SMILES notation.

With `C[C@H](Nc1ncnc2nc[nH]c12)c1cc2cccc(Cl)c2c(=O)n1-c1ccccc1`, the Activity in assay [1] turned out to be 95.8%; in assay [2] it was 96.9%; in assay [3], 94.8%; in assay [4], 98.7%; in assay [5], 91.8%.

As to `CC[C@H](Nc1ncnc2[nH]cnc12)c1nc2cccc(F)c2c(=O)n1-c1ccccc1`, the Activity was determined as 99.3% in assay [1]; 99.9% in assay [2]; 85.5% in assay [3]; 93.9% in assay [4]; 102% in assay [5].

As to `CC(C)Oc1ccc(-c2nn([C@@H](C)c3oc4ccc(F)cc4c(=O)c3-c3cccc(F)c3)c3ncnc(N)c23)cc1F` [UMBRALISIB], the Activity in assay [1] came out at 98.1%; in assay [2], 98.7%; in assay [3], 98.4%; in assay [4] it was 91%; in assay [5] it was 102%.
